Laboratory results taken from patent US4879381A, “7-(substituted or unsubstituted amino) 3-substituted methyl-^3 cephem-4-carboxylic acid” (Toyoma Chemical Company, Ltd., priority 1980, dated 1989).
Structures can show the parent of a compound that is named as a salt. Where two headings read alike, the source gives them in different places.

Assays:
[1] = in vivo; conditions: mouse, intravenous, mice
From the text: Three test compounds were introvenously administered to mice (ICR, male, 4 weeks old) to test their acute toxicities.

[2] = tested on: E. coli NIHJ; assay: Antibacterial activity (MIC, agar plate, standard method of the Japanese Chemotherapeutic Society); format: cell-based; conditions: Escherichia coli, 10^4 cells/plate, 37° C., 20 hours, read-out: MIC
Method: (§1) According to the standard method of the Japanese Chemotherapeutic Society [Chemotherapy, Vol. 23, Pages 1-2 (1975)], a culture obtained by cultivating bacteria in Heart Infusion broth (manufactured by Eken Kagakusha) at 37° C. for 20 hours was inoculated into a Heart Infusion agar medium (manufactured by Eiken Kagakusha) and cultivated at 37° C. for 20 hours, after which the growth of bacteria was examined visually. The minimum inhibitory concentration at which the bacterial growth was inhibited was taken as MIC (μg/ml). The amount of the inoculated bacteria was 10^4 cells/plate (10^6 cells/ml).

[3] = tested on: Kl. pneumoniae Y-50; assay: Antibacterial activity (MIC, agar plate); format: cell-based; conditions: Klebsiella pneumoniae, Y50, 10^4 cells/plate, 37° C., 20 hours, read-out: MIC
Method: as §1

[4] = tested on: Pro. mirabilis T-111; assay: Antibacterial activity (MIC, agar plate); format: cell-based; conditions: Proteus mirabilis, T111, 20 h
Method: as §1

[5] = tested on: E. coli TK3 (Penicillinase-producing bacteria); assay: Antibacterial activity (MIC, agar plate); format: cell-based; conditions: Escherichia coli; E. coli TK3 (penicillinase-producing); 10^4 cells/plate, 37° C., 20 hours; read-out: MIC
Method: as §1

[6] = tested on: Aci. calcoaceticus A-6; assay: Antibacterial activity (MIC, agar plate); format: cell-based; conditions: Acinetobacter calcoaceticus, A6, 10^4 cells/plate, 37° C., 20 hours, read-out: MIC
Method: as §1

[7] = tested on: Klebsiella spp Y-72; assay: Antibacterial activity (MIC, agar plate); format: cell-based
Method: as §1

[8] = tested on: Pro. morganii T-216; assay: Antibacterial activity (MIC, agar plate); format: cell-based; conditions: Morganella morganii, T216, 20 h
Method: as §1

[9] = tested on: Al. faecalis B-1; assay: Antibacterial activity (MIC, agar plate); format: cell-based; conditions: Alcaligenes faecalis
Method: as §1

[10] = tested on: Kl. pneumoniae Y-41; assay: Antibacterial activity (MIC, agar plate); format: cell-based; conditions: Klebsiella pneumoniae, Y41; Kl. pneumoniae Y-41; 10^4 cells/plate, 37° C., 20 hours; read-out: MIC
Method: as §1

[11] = tested on: Pro. mirabilis T-100; assay: Antibacterial activity (MIC, agar plate); format: cell-based; conditions: Proteus mirabilis, T100, 10^4 cells/plate, 37° C., 20 hours, read-out: MIC
Method: as §1

[12] = tested on: Ent. cloacae IID977; assay: Antibacterial activity (MIC, agar plate); format: cell-based; conditions: Enterobacter cloacae, 10^4 cells/plate, 37° C., 20 hours, read-out: MIC
Method: as §1

[13] = tested on: Ser. marcescens IID620; assay: Antibacterial activity (MIC, agar plate); format: cell-based; conditions: Serratia marcescens, IID620, 20 h
Method: as §1

[14] = tested on: Pro. vulgaris GN76 (Cephalosporinase-producing bacteria); assay: Antibacterial activity (MIC, agar plate); format: cell-based; conditions: Proteus vulgaris; Pro. vulgaris GN76 (cephalosporinase-producing); 10^4 cells/plate, 37° C., 20 hours; read-out: MIC
Method: as §1

SMILES	LD50 [1] [mg/kg]	MIC [2] [µg/mL]	MIC [3] [µg/mL]	MIC [4] [µg/mL]	MIC [5] [µg/mL]	MIC [6] [µg/mL]	MIC ([7]; Y72, Klebsiella spp Y-72, 10^4 cells/plate, 37° C., 20 hours, read-out: MIC) [µg/mL]	MIC [8] [µg/mL]	MIC ([9]; B1, Al. faecalis B-1, 10^4 cells/plate, 37° C., 20 hours, read-out: MIC) [µg/mL]	MIC [10] [µg/mL]	MIC [11] [µg/mL]	MIC [12] [µg/mL]	MIC [13] [µg/mL]	MIC [14] [µg/mL]	MIC ([7]; Klebsiella, Y72, 20 h) [µg/mL]	MIC ([9]; B1, 20 h) [µg/mL]
Cc1nnn(CC2=C(C(=O)O)N3C(=O)C(NC(=O)Cc4csc(N)n4)C3SC2)n1 (stereo not drawn)	> 3000															
CO/N=C(\C(=O)NC1C(=O)N2C(C(=O)O)=C(Cc3ccc(O)cc3)CSC12)c1csc(N)n1 (stereo not drawn) [D, Trifluoroacetic acid salt of 7-[2-(2-aminothiazol-4-yl)-2-(syn)-methoxyiminoacetamido]-3-(4-hydroxybenzyl)-Δ^3-cephem-4-carboxylic acid]		≤ 0.1	0.2	0.78	1.56	6.25	6.25	0.78	25	0.78	≤ 0.1	25	3.13	1.56		
Cc1nnn(CC2=C(C(=O)O)N3C(=O)C(NC(=O)/C(=N\O)c4csc(N)n4)C3SC2)n1 (stereo not drawn) [E, Trifluoroacetic acid salt of 7-[2-(2-aminothiazol-4-yl)-2-(syn)-hydroxyiminoacetamido]-3-(2-(5-methyl-1,2,3,4-tetrazolyl)methyl]-Δ^3-cephem-4-carboxylic acid]		≤ 0.1	≤ 0.1	0.39	0.78	50		≤ 0.1		0.2	≤ 0.1	6.25	3.13	6.25	3.13	3.13
